pIC50: −log10 of the molar value. Where two headings read alike, the source gives them in different places.

One assay deals with ER in T47D cells (Homo sapiens (Human), UniProt P03372). Nature of the assay: In-cell Western (ICW) ER degradation assay in T47D cells. It is filed as cell-based. The conditions noted are these: for DC50: ER degradation. An excerpt: In-cell Western (ICW) assays in MCF-7 and T47D cell lines.
Day 3: After 16 hrs of compounds treatment, cells were fixed by 4% PFA and permeabilized with elution buffer (0.1% Triton X-100 in 1% PBS Solution). Subsequently, cells were blocked with Intercept (PBS) Blocking Buffer (Li-COR, Odyssey Blocking Buffer), and were stained with ER (1:500, Cell signaling) primary antibody for overnight at cold room.
Day 4: Remove the buffer, add IRDye 800CW Goat anti-Rabbit IgG Secondary Antibody (1:2000) and CellTag 700 Stain (1:500) in Intercept (PBS) Blocking Buffer. Finally, cell plate is placed in incubator to dry. Image and signal were captured on Odyssey® DLx Imaging System.

In another assay the target is ER in MCF-7 cells (Homo sapiens (Human), UniProt P03372). Put plainly: In-cell Western (ICW) ER degradation assay in MCF-7 cells. Format: cell-based. The conditions noted are these: for DC50: MCF-7, ER degradation, read-out: MCF7 DC50; for MCF7 Dmax: MCF-7, maximal ER degradation.
In the next assay the target is CRBN/DDB1 (Homo sapiens (Human), UniProt Q96SW2). Format: binding. The following applies: His tagged CRBN+DDB1, Cy5-labeled Thalidomide probe, one hour; read-out: CRBN HTRF IC50. How it is done: The binding potency was determined using HTRF assay technology (Perkin Elmer). Compounds were serially diluted in DMSO and […] volume was transferred to white 384-well plate.
(In general: TR-FRET usually uses a lanthanide donor and a delayed reading to cut background.)

Setting [1] is: MCF7, read-out: MCF7 Dmax, MCF-7, maximal ER degradation, 16 hrs treatment.
[2] abbreviates: maximal ER degradation, 16 hrs treatment, read-out: T47D Dmax.
Where [3] appears, read: MCF7, MCF-7, maximal ER degradation, 16 hrs treatment, read-out: MCF7 Dmax.
The mark [4] stands for this setting: maximal ER degradation, 16 hrs treatment.

Chain of ER in T47D cells (P03372 whole entry): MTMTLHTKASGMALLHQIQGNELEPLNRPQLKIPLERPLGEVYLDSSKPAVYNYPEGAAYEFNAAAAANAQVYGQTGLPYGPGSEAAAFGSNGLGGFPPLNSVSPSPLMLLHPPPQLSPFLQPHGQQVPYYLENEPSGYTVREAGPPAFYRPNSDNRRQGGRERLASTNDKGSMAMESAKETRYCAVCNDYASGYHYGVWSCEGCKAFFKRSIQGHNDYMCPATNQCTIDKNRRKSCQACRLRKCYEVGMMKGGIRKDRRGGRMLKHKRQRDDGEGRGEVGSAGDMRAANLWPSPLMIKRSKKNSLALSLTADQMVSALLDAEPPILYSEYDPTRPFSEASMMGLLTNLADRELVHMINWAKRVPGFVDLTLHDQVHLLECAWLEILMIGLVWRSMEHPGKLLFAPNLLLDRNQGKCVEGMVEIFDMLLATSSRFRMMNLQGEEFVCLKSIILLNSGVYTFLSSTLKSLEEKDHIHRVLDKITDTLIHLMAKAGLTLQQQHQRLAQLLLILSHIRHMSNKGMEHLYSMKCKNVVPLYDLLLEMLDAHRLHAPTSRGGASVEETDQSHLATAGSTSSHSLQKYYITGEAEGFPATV
Chain of ER in MCF-7 cells (P03372 whole entry): as above
Chain of CRBN/DDB1 (Q96SW2 whole entry, species assumed): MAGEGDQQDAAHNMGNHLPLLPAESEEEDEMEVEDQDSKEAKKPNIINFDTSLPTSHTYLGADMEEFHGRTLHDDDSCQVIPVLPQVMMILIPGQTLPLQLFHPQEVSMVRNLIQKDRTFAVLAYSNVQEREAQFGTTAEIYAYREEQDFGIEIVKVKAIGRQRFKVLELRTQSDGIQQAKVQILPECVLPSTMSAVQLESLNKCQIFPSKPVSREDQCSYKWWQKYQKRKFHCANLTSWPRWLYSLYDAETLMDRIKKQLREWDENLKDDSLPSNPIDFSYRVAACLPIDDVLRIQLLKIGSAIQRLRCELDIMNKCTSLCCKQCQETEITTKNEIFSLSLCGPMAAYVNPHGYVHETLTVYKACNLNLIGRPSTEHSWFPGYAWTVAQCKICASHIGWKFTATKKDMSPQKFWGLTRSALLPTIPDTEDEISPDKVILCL
Chain of CRBN/DDB1 (Q16531 whole entry partner, species assumed): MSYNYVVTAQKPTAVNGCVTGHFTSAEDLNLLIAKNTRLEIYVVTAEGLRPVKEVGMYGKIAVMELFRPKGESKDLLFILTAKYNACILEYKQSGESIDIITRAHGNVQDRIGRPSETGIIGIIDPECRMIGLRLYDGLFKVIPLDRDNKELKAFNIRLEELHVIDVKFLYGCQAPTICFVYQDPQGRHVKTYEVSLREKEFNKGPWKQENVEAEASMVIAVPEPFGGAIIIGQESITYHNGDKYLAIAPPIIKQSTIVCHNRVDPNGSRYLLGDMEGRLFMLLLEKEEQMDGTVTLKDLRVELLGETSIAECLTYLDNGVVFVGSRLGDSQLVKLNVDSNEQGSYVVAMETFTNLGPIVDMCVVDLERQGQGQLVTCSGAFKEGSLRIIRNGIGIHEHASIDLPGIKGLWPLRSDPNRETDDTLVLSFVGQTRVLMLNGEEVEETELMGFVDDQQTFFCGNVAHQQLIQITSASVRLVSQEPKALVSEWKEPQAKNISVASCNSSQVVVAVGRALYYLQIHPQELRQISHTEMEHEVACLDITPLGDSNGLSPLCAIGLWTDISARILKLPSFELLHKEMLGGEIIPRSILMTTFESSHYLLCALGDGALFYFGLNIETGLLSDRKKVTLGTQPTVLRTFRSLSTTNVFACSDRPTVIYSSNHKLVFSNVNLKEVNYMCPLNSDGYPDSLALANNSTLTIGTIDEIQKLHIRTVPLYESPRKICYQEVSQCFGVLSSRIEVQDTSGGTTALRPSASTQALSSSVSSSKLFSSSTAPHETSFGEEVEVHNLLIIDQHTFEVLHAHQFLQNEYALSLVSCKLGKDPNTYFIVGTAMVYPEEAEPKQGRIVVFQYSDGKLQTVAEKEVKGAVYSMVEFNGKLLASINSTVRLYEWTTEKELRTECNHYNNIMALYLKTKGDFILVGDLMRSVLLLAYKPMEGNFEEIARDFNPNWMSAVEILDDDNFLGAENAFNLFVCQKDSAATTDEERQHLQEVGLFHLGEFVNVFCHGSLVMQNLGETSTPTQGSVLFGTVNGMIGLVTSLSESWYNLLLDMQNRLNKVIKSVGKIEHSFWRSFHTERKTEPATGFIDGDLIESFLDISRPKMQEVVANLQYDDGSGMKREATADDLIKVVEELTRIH

Consider `COc1cc(N2CCC(CN3CC[C@]4(c5ccc(N[C@H]6CCC(=O)NC6=O)cc5)[C@H](C3)C4(F)F)CC2)ccc1[C@@H]1c2ccc(O)cc2CC[C@@H]1c1ccccc1` [Compound A90, (S)-3-((4-((1R,6R)-7,7-difluoro-3-((1-(4-((1S,2S)-6-hydroxy-2-phenyl-1,2,3,4-tetra-hydronaphthalen-1-yl)-3-meth-oxyphenyl)piperidin-4-yl)meth-yl)-3-azabicyclo[4.1.0]heptan-6-yl)phenyl)amino)piperidine-2,6-dione], for which the DC50 at ER in T47D cells (16 hrs treatment) and at ER in MCF-7 cells (16 hrs treatment) was less than 1 nM in each case. Further, the maximal degradation (Dmax) – broadly, the greatest extent of degradation seen – at ER in T47D cells (read-out: T47D Dmax, T47D, maximal ER degradation, 16 hrs treatment) lay within 25 to 50%; at ER in MCF-7 cells (setting [1]), 25 to 50%. For the same compound, the pIC50 – broadly, −log10 of the IC50, conventionally taken in molar units – on CRBN/DDB1 is less than 5.30.
For `COc1cc(N2CCC3(CC2)CC(CN2CCC(c4ccc(N[C@H]5CCC(=O)NC5=O)c(F)c4)CC2)C3)ccc1[C@@H]1c2ccc(O)cc2CC[C@@H]1c1ccccc1` (single isomer, unassigned) [Compound A109], the DC50 on ER in T47D cells (16 hrs treatment) and at ER in MCF-7 cells (16 hrs treatment) was less than 1 nM throughout. Besides, the Dmax at ER in T47D cells (setting [2]) is 50 to 75%; at ER in MCF-7 cells (setting [3]), 25 to 50%. In addition, on CRBN/DDB1, the negative-log IC50 (pIC50) was 5.30 to 6.30.
As for `O=C1CC[C@@H](Nc2ccc(C3CCN(C[C@H]4COC5(CCN(c6ccc([C@@H]7c8ccc(O)cc8CC[C@@H]7c7ccccc7)cc6)CC5)C4)CC3)cc2)C(=O)N1` (single isomer, unassigned) [Compound A51], the 50% degradation concentration (DC50) on ER in T47D cells (16 hrs treatment) and on ER in MCF-7 cells (16 hrs treatment) was more than 100 nM throughout. Besides, the Dmax at ER in T47D cells (setting [2]) and at ER in MCF-7 cells (setting [3]) was less than 25% throughout. Besides, at CRBN/DDB1, the pIC50 was 6.30 to 7.30.
For `O=C1CC[C@H](N2Cc3c(ccc4c3OC[C@H]3CN(CC5COC6(C5)CN(c5ccc([C@@H]7c8ccc(O)cc8CC[C@@H]7c7ccccc7)cc5)C6)CCN43)C2=O)C(=O)N1` (single isomer, unassigned) [Compound A7], the half-maximal degradation concentration (DC50) – broadly, the concentration giving 50% degradation – at ER in T47D cells (16 hrs treatment) was less than 1 nM. Moreover, the “T47D Dmax” value on ER in T47D cells (setting [4]) was “B (“B”: >50 and <75%)”. On ER in MCF-7 cells (16 hrs treatment), the DC50 was less than 1 nM; the “MCF7 Dmax” value is “B (“B”: >50 and <75%)”. Further, the pIC50 at CRBN/DDB1 was 5.30 to 6.30.
`COc1cc(C2c3ccc(O)cc3CCC2c2ccccc2)c(F)cc1N1CCC(CN2CCN3c4ccc5c(c4OC[C@H]3C2)CN([C@H]2CCC(=O)NC2=O)C5=O)CC1` (stereo in doubt) [Compound A97, (S)-3-((R)-7-((1-(5-fluoro-4-((1R,2R)-6-hydroxy-2-phenyl-1,2,3,4-tetrahydronaphthalen-1-yl)-2-methoxyphenyl)piperidin-4-yl)methyl)-1-oxo-1,3,5,5a,6,7,8,9-octahydro-2H-pyrazino[1′,2′: 4,5][1,4]oxazino[2,3-e]isoindol-2-yl)piperidine-2,6-dione]: the DC50 on ER in T47D cells (16 hrs treatment) lay within 1 to 10 nM. Besides, at ER in T47D cells (setting [4]), the “T47D Dmax” value is reported as “A (“A”: >=75%)”. Further, on CRBN/DDB1, the pIC50 is 6.30 to 7.30.
`O=C1CC[C@H](N2Cc3c(ccc4c3OC[C@H]3CN(CC5CC6COCC(C5)N6c5ccc([C@@H]6c7ccc(O)cc7CC[C@@H]6c6ccccc6)cc5)CCN43)C2=O)C(=O)N1` (stereo partly drawn) [Compound A83, (3S)-3-((5aR)-7-((9-(4-((1R, 2S)-6-hydroxy-2-phenyl-1,2,3,4-tetrahydronaphthalen-1-yl)phenyl)-3-oxa-9-azabi-cyclo[3.3.1]nonan-7-yl)meth-yl)-1-oxo-1,3,5,5a,6,7,8,9-octa-hydro-2H-pyrazino[1′,2′:4,5] [1,4]oxazino[2,3-e]isoindol-2-yl)piperidine-2,6-dione] registered a DC50 on ER in T47D cells (16 hrs treatment) of less than 1 nM. The “T47D Dmax” value on ER in T47D cells (setting [4]) was “B (“B”: >50 and <75%)”. For the same compound, the pIC50 at CRBN/DDB1 is 6.30 to 7.30.
Regarding `COc1nc(C(=O)NC2CCC(=O)NC2=O)ccc1N1CCN(CC2CCN(c3ccc([C@@H]4c5ccc(O)cc5CC[C@@H]4c4ccccc4)cc3)CC2)CC1` (single isomer, unassigned) [Compound A1], at ER in T47D cells (16 hrs treatment), the half-maximal degradation concentration (DC50) lay within 1 to 10 nM. The Dmax at ER in T47D cells (setting [2]) lay in the range of 25 to 50%. The negative logarithm of the IC50 (pIC50) at CRBN/DDB1 was 5.30 to 6.30.
In turn, `COc1cc([C@@H]2c3ccc(O)cc3CC[C@@H]2c2ccccc2)c(F)cc1N1CCC(CN2CCN3c4ccc5c(c4OC[C@H]3C2)CN([C@H]2CCC(=O)NC2=O)C5=O)CC1` (single isomer, unassigned) [Compound A98] had a half-maximal degradation concentration (DC50) at ER in T47D cells (16 hrs treatment) of 10 to 100 nM. In addition, the “T47D Dmax” value at ER in T47D cells (setting [4]) is recorded as “C (“C”: 25-50%)”. In addition, the pIC50 on CRBN/DDB1 is 6.30 to 7.30.
On to `O=C1CC[C@H](N2Cc3c(ccc4c3OCC43CCN(CC4CC5(CCN(c6ncc([C@@H]7c8ccc(O)cc8CC[C@@H]7c7ccccc7)cn6)CC5)C4)CC3)C2=O)C(=O)N1` [Compound A142, (S)-3-(1′-((7-(5-((1S,2S)-6-hydroxy-2-phenyl-1,2,3,4-tetrahydronaphthalen-1-yl)pyrimidin-2-yl)-7-azaspiro[3.5]nonan-2-yl)methyl)-6-oxo-6,8-dihydro-2H,7H-spiro[furo[2,3-e]isoindole-3,4′-piperidin]-7-yl)piperidine-2,6-dione], for which, at ER in MCF-7 cells (setting [1]), the greatest degradation seen (Dmax) was in the range of 50 to 75%. Besides, the DC50 at ER in MCF-7 cells (16 hrs treatment) was less than 1 nM. Besides, the pIC50 at CRBN/DDB1 is more than 7.30.
For `COc1cc(N2CCC(CN3CCC(c4ccc(N[C@H]5CCC(=O)NC5=O)c(F)c4)CC3)CC2)c(F)cc1[C@@H]1c2ccc(O)cc2CC[C@@H]1c1ccccc1` [Compound A118, (S)-3-((2-fluoro-4-(1-((1-(2-fluoro-4-((1S,2S)-6-hydroxy-2-phenyl-1,2,3,4-tetrahydronaph-thalen-1-yl)-5-methoxyphenyl)-piperidin-4-yl)methyl)piper-idin-4-yl)phenyl)amino)piper-idine-2,6-dione], the Dmax on ER in MCF-7 cells (setting [3]) lay within 25 to 50%. In addition, the DC50 on ER in MCF-7 cells (16 hrs treatment) is less than 1 nM. Moreover, at CRBN/DDB1, the pIC50 was 5.30 to 6.30.
`O=C1CC[C@H](N2Cc3cc4c(cc3C2=O)OCC42CCN(CC3CC4(CCN(c5ccc([C@H]6c7ccc(O)cc7CC[C@H]6c6ccccc6)cn5)CC4)C3)CC2)C(=O)N1` [Compound A125, (S)-3-(1′-((7-(5-((1R,2R)-6-hydroxy-2-phenyl-1,2,3,4-tetra-hydronaphthalen-1-yl)pyridin-2-yl)-7-azaspiro[3.5]nonan-2-yl)methyl)-7-oxo-5,7-dihydro-2H,6H-spiro[furo[2,3-f]iso-indole-3,4′-piperidin]-6-yl)-piperidine-2,6-dionc] gave a DC50 on ER in T47D cells (16 hrs treatment) of 10 to 100 nM. The “T47D Dmax” value on ER in T47D cells (setting [4]) was “B (“B”: >50 and <75%)”. On CRBN/DDB1, the pIC50 is 6.30 to 7.30.
Take `O=C1CC[C@H](N2Cc3c(ccc4c3OC[C@H]3CN(CC5CCC6(CC5)CN(c5ncc([C@@H]7c8ccc(O)cc8CC[C@@H]7c7ccccc7)cn5)C6)CCN43)C2=O)C(=O)N1` (single isomer, unassigned) [Compound A156]: the Dmax on ER in MCF-7 cells (setting [3]) was more than 75%. Also, the DC50 at ER in MCF-7 cells (16 hrs treatment) is less than 1 nM. Besides, the pIC50 on CRBN/DDB1 was 6.30 to 7.30.
Regarding `O=C1CC[C@H](N2Cc3c(ccc4c3OCC43CCN(CC4CCN(c5ccc([C@@H]6c7ccc(O)cc7CC[C@@H]6c6ccccc6)cc5)CC4)CC3)C2=O)C(=O)N1` [Compound A70, (S)-3-(1′-((1-(4-((1R,2S)-6-hydroxy-2-phenyl-1,2,3,4-tetrahydronaphthalen-1-yl)-phenyl)piperidin-4-yl)methyl)-6-oxo-6,8-dihydro-2H,7H-spiro[furo[2,3-e]isoindole-3,4′-piperidin]-7-yl)piperidine-2,6-dione], the Dmax at ER in MCF-7 cells (setting [1]) lay in the range of 50 to 75%. Further, the DC50 on ER in MCF-7 cells (16 hrs treatment) is less than 1 nM. Moreover, the pIC50 on CRBN/DDB1 is more than 7.30.
On to `COc1cc(N2CC3(CCC(CN4CCN5c6ccc7c(c6OC[C@H]5C4)CN([C@H]4CCC(=O)NC4=O)C7=O)CC3)C2)c(F)cc1[C@@H]1c2ccc(O)cc2CC[C@@H]1c1ccccc1` (single isomer, unassigned) [Compound A163], for which, on ER in MCF-7 cells (setting [3]), the Dmax was more than 75%. On ER in MCF-7 cells (16 hrs treatment), the half-maximal degradation concentration (DC50) was 1 to 10 nM. For the same compound, the pIC50 at CRBN/DDB1 was 6.30 to 7.30.
Regarding `O=C1CC[C@H](N2Cc3c(ccc4c3OCC43CCN(CC4CC5COCC(C4)N5c4ccc([C@@H]5c6ccc(O)cc6CC[C@@H]5c5ccccc5)cc4)CC3)C2=O)C(=O)N1` (stereo partly drawn) [Compound A81, (3S)-3-(1′-((9-(4-((1R,2S)-6-hydroxy-2-phenyl-1,2,3,4-tetra-hydronaphthalen-1-yl)phenyl)-3-oxa-9-azabicyclo[3.3.1]nonan-7-yl)methyl)-6-oxo-6,8-dihydro-2H,7H-spiro[furo[2,3-e]isoindole-3,4′-piperidin]-7-yl)piperidine-2,6-dione], the Dmax on ER in MCF-7 cells (setting [1]) lay within 25 to 50%. Besides, the half-maximal degradation concentration (DC50) at ER in MCF-7 cells (16 hrs treatment) was less than 1 nM. In addition, the pIC50 at CRBN/DDB1 is more than 7.30.
Regarding “(S)-3-((3-fluoro-4-(1-((1-(2-fluoro-4-((1S,2S)-6-hydroxy-2-phenyl-1,2,3,4-tetrahydronaphthalen-1-yl)-5-methoxyphenyl)piperidin-4-yl)methyl)piperidin-4-yl)phenyl)amino)piperidine-2,6-dione [Compound A120]”, at ER in MCF-7 cells (16 hrs treatment), the DC50 lay within 10 to 100 nM and the “MCF7 Dmax” value is “C (“C”: 25-50%)”. In addition, the pIC50 on CRBN/DDB1 is 5.30 to 6.30.

For the origin of these results see patent US20260028354A1, “TETRAHYDRONAPHTHALENE DERIVATIVES AS ESTROGEN RECEPTOR DEGRADERS” (REGENT OF THE UNIVERSITY OF MICHIGAN, priority 2022, published 2026).
